Laboratory results reported in US11109593B2, “Isoxazolin-5-one derivative and herbicide containing same as active ingredient” (HOKKO CHEMICAL INDUSTRY CO., LTD., priority 2017, dated 2021).

How the values were obtained:
Format in all cases: in vivo
Echinochloa crus-galli [1] = assay: Test Example 1: herbicidal effect test by treatment of rice paddy soil (immediately after seeding); conditions: 120 g/10a active ingredient, dry weight vs untreated area, 14 days after treatment
Summary of the method: (§1)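 Pre-emergence paddy water application, 120 g a.i./10 ares, applied immediately post-seeding into ~3 cm flood; glasshouse; duplicate pots; dry weight at 14 d → % inhibition = (1 − treated/untreated) × 100.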

Scirpus juncoides [2] = assay: as above; conditions: 120 g/10a active ingredient, dry weight vs untreated area, 14 days after treatment
Summary of the method: as §1

[3] = tested on: broad leaf weeds (Lindernia pyxidaria and Monochoria vaginalis); assay: as above; conditions: 120 g/10a active ingredient, dry weight vs untreated area, 14 days after treatment
Summary of the method: as §1

Echinochloa crus-galli [4] = assay: Test Example 2: herbicidal effect test by treatment during growing period in paddy rice cultivation (seven days after seeding); conditions: 120 g/10a active ingredient, assessed 14 days after treatment, dry weight vs untreated area
Summary of the method: (§2)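 Greenhouse flooded-pot test, seeds sown in puddled paddy soil; emulsion applied into water 7 d after seeding, 120 g a.i./10 a. Dry-weight-based herbicidal rate at 14 d, n=2.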

Scirpus juncoides [5] = assay: as above; conditions: 120 g/10a active ingredient, assessed 14 days after treatment, dry weight vs untreated area
Summary of the method: as §2

[6] = tested on: broad leaf weeds (Lindernia pyxidaria and Monochoria vaginalis); assay: as above; conditions: 120 g/10a active ingredient, assessed 14 days after treatment, dry weight vs untreated area
Summary of the method: as §2

Amaranthus viridis [7] = assay: Test Example 3: herbicidal effect test by treatment of dry field farming soil (one day after seeding); conditions: 120 g/10a active ingredient, evaluated 14 days after treatment
Summary of the method: (§3)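 Compound emulsions are sprayed on the soil surface one day after sowing (120 g a.i. per 10 ares) before weeds emerge. Effect is expressed as percent dry-weight reduction versus untreated controls 14 days post-treatment.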

Chenopodium album [8] = assay: as above; conditions: 120 g/10a active ingredient, evaluated 14 days after treatment
Summary of the method: as §3

Echinochloa crus-galli [9] = assay: as above; conditions: 120 g/10a active ingredient, evaluated 14 days after treatment
Summary of the method: as §3

southern crabgrass [10] = assay: as above; conditions: 120 g/10a active ingredient, evaluated 14 days after treatment
Summary of the method: as §3

Amaranthus viridis [11] = assay: Test Example 4: herbicidal effect test by treatment of leave and stem in dry field farming (seven days after seeding); conditions: 120 g/10a active ingredient; emulsion sprayed seven days after seeding; evaluated 14 days after treatment
Summary of the method: (§4)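 Duplicate pots were scored 14 days post-spray by dry weight, herbicidal rate = {1 − treated/untreated average dry weight} × 100. The water-diluted emulsion, equivalent to 120 g active ingredient per 10 ares in 100 L, was applied seven days after sowing 20 seeds each into the upper 1 cm of alluvial soil.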

Chenopodium album [12] = assay: as above; conditions: 120 g/10a active ingredient; emulsion sprayed seven days after seeding; evaluated 14 days after treatment
Summary of the method: as §4

Echinochloa crus-galli [13] = assay: as above; conditions: 120 g/10a active ingredient; emulsion sprayed seven days after seeding; evaluated 14 days after treatment
Summary of the method: as §4

southern crabgrass [14] = assay: as above; conditions: 120 g/10a active ingredient; emulsion sprayed seven days after seeding; evaluated 14 days after treatment
Summary of the method: as §4

| Compound | Herbicidal rate (%) Echinochloa crus-galli (Echinochloa crus-galli [1]) | Herbicidal rate (%) Scirpus juncoides (Scirpus juncoides [2]) | Herbicidal rate (%) Lindernia pyxidaria [3] | Herbicidal rate (%) Monochoria vaginalis [3] | Herbicidal rate (%) Echinochloa crus-galli (Echinochloa crus-galli [4]) | Herbicidal rate (%) Scirpus juncoides (Scirpus juncoides [5]) | Herbicidal rate (%) Lindernia pyxidaria [6] | Herbicidal rate (%) Monochoria vaginalis [6] | herbicidal rate, Amaranthus viridis (Amaranthus viridis [7]) | herbicidal rate, Chenopodium album (Chenopodium album [8]) | herbicidal rate, Echinochloa crus-galli (Echinochloa crus-galli [9]) | herbicidal rate, southern crabgrass (southern crabgrass [10]) | herbicidal effect (herbicidal rate), Amaranthus viridis (Amaranthus viridis [11]) | herbicidal effect (herbicidal rate), Chenopodium album (Chenopodium album [12]) | herbicidal effect (herbicidal rate), Echinochloa crus-galli (Echinochloa crus-galli [13]) | herbicidal effect (herbicidal rate), southern crabgrass (southern crabgrass [14]) |
| --- | --- | --- | --- | --- | --- | --- | --- | --- | --- | --- | --- | --- | --- | --- | --- | --- |
| Cc1c(Cc2ccccc2N(S(=O)(=O)C(F)(F)F)S(=O)(=O)C(F)(F)F)c(=O)on1CCOCC(C)C [Compound 1-1000] | 100% | 100% | 80% | 90% | 90% | 90% | 40% | 70% | 40% | 40% | 60% | 80% | 40% | 0% | 60% | 40% |
| Cc1c(Cc2ccccc2N(C(=O)OCC(C)C)S(=O)(=O)C(F)(F)F)c(=O)on1C(C)(C)C [Compound 1-668] | 90% | 90% | 90% | 90% | 90% | 90% | 90% | 90% | 90% | 90% | 90% | 90% | 40% | 40% | 90% | 90% |
| Cc1c(Cc2ccccc2N(S(=O)(=O)C(F)(F)F)S(=O)(=O)C(F)(F)F)c(=O)on1CC(C)(C)C [Compound 1-968] | 90% | 90% | 90% | 90% | 90% | 90% | 90% | 90% | 90% | 90% | 90% | 90% | 40% | 40% | 90% | 90% |
| COCC(C)n1oc(=O)c(Cc2ccccc2N(C(=O)CC(C)C)S(=O)(=O)C(F)(F)F)c1C (stereo not shown) [Compound 1-357] | 90% | 90% | 90% | 90% | 90% | 90% | 90% | 90% | 90% | 90% | 90% | 90% | 40% | 40% | 90% | 90% |
| COCC(C)n1oc(=O)c(Cc2ccccc2N(C(=O)C(C)C)S(=O)(=O)C(F)(F)F)c1C (stereo not shown) [Compound 1-335] | 90% | 90% | 90% | 90% | 90% | 90% | 90% | 90% | 90% | 90% | 90% | 90% | 40% | 40% | 90% | 90% |
| CCC(C)Cn1oc(=O)c(Cc2ccccc2N(C(=O)OCCOC)S(=O)(=O)C(F)(F)F)c1C (stereo not shown) [Compound 1-733] | 100% | 100% | 90% | 90% | 100% | 90% | 70% | 90% | 80% | 60% | 100% | 100% | 60% | 60% | 90% | 80% |
| Cc1c(Cc2ccccc2NS(=O)(=O)C(F)(F)F)c(=O)on1CC1(C)CC1 [Compound 1-145] | 100% | 100% | 100% | 100% | 90% | 80% | 60% | 80% | 40% | 40% | 90% | 80% | 0% | 40% | 90% | 50% |
| Cc1c(Cc2ccccc2N(S(=O)(=O)C(F)(F)F)S(=O)(=O)C(F)(F)F)c(=O)on1CCS(C)(=O)=O [Compound 1-1006] | 70% | 90% | 70% | 60% | 80% | 90% | 60% | 80% | 60% | 60% | 80% | 60% | 40% | 40% | 40% | 40% |
| Cc1c(Cc2ccccc2N(C(=O)c2ccccc2)S(=O)(=O)C(F)(F)F)c(=O)on1C(C)(C)C [Compound 1-473] | 90% | 90% | 90% | 90% | 90% | 90% | 90% | 90% | 90% | 90% | 90% | 90% | 40% | 40% | 90% | 90% |
| Cc1c(Cc2ccccc2NS(=O)(=O)C(F)(F)F)c(=O)on1CC1CCCO1 (stereo not shown) [Compound 1-230] | 100% | 90% | 100% | 80% | 90% | 90% | 70% | 90% | 60% | 60% | 100% | 100% | 40% | 40% | 80% | 80% |
